From patent EP1027888B1, “Osmotic system for delivery of solid amorphous dispersions of drugs” (Pfizer Products Inc., priority 1999, dated 2000)
≈ marks a conversion by molar mass, not a printed value. One block for each compound: values may come before it.

Tests used:
physchem = details: water
[1] = dissolution in phosphate-buffered solution pH 7.2 (Example 7); assay type: physicochemical; details: 50 ml phosphate-buffered solution pH 7.2
Procedure: For a comparative dissolution study, Control G, consisting of 100 mg of crystalline Drug 2 was prepared. The dissolution of drug was studied by placing one each of the bi-layer tablet and Control G preparation containing an equal amount of Drug 2 in 50 ml of the phosphate-buffered solution of Example 3 (pH 7.2, osmotic pressure 5.3 atm) to simulate an intestinal environment of use.

[2] = dissolution in phosphate buffered saline (PBS) solution (Example 3); assay type: physicochemical; details: 35 ml PBS solution
Procedure: For a comparative dissolution study, Control E, consisting of 35 mg of crystalline Drug 2 was prepared. The dissolution of drug was studied by placing two of the trilayer tablets and Control E each in 35 ml of a phosphate buffered saline (PBS) solution composed of 6 mM KH2PO4, 5 mM NaOH, 60 mM KC1 and 30 mM NaCl. The data for the trilayer tablet is the average of the values for the two tablets tested.

[3] = dissolution in MFD solution (Example 8); assay type: physicochemical; details: 40 ml MFD solution
Procedure: For a comparative dissolution study, Control H, consisting of 111.4 mg of the crystalline drug, was used. The dissolution of drug was studied by placing the bilayer tablet and Control H each in 40 ml of MFD solution.

[4] = dissolution in MFD solution (Example 6); assay type: physicochemical; details: 50 ml MFD solution
Procedure: A Model Fasted Duodenum (MFD) solution was prepared to mimic the chemical environment of the small intestine, the solution comprising a phosphate-buffered saline solution containing 14.7 mM sodium taurocholic acid and 2.8 mM of 1-palmitoyl-2-oleyl-sn-glycero-3-phosphocholine with a pH of 6.5.
The data for the tri-layer tablet is the average of the values for the two tablets tested.

solubility (physchem): 80 µg/mL (≈ 175 µM)
MDC [1]: 77 µg/mL
[Drug] ([1]; time 0 hr): 0 µg/mL
[Drug] ([1]; time 1 hr): 59 µg/mL
[Drug] ([1]; time 2 hr): 72 µg/mL
[Drug] ([1]; time 4 hr): 72 µg/mL
[Drug] ([1]; time 8 hr): 77 µg/mL
[Drug] ([1]; time 12 hr): 71 µg/mL
[Drug] ([1]; time 18 hr): 71 µg/mL
[Drug] ([1]; time 24 hr): 75 µg/mL
MDC [2]: 171 µg/mL
[Drug] ([2]; time 0.3 hr): 99 µg/mL
[Drug] ([2]; time 1.5 hr): 148 µg/mL
[Drug] ([2]; time 2.0 hr): 165 µg/mL
[Drug] ([2]; time 3.0 hr): 137 µg/mL
[Drug] ([2]; time 4.0 hr): 142 µg/mL
[Drug] ([2]; time 12.0 hr): 157 µg/mL
[Drug] ([2]; time 20.0 hr): 171 µg/mL
Compound: O=C(N[C@@H](Cc1ccccc1)[C@@H](O)C(=O)N1C[C@@H](O)[C@@H](O)C1)c1cc2cc(Cl)ccc2[nH]1 [Drug 2]

Compound: CN[C@H]1CC[C@@H](c2ccc(Cl)c(Cl)c2)c2ccccc21 [sertraline]
MDC [3]: 401 µg/mL
[Drug] ([3]; time 0 hr): 0 µg/mL
[Drug] ([3]; time 0.2 hr): 278 µg/mL
[Drug] ([3]; time 0.3 hr): 401 µg/mL
[Drug] ([3]; time 0.7 hr): 341 µg/mL
[Drug] ([3]; time 1.5 hr): 217 µg/mL
[Drug] ([3]; time 2 hr): 188 µg/mL
[Drug] ([3]; time 3 hr): 168 µg/mL
[Drug] ([3]; time 4 hr): 152 µg/mL
[Drug] ([3]; time 6 hr): 160 µg/mL
[Drug] ([3]; time 10 hr): 137 µg/mL
[Drug] ([3]; time 14 hr): 135 µg/mL
[Drug] ([3]; time 24 hr): 191 µg/mL
AUC ([3]; up to 0 hr): 0 µg·min/mL
AUC ([3]; up to 0.2 hr): 830 µg·min/mL
AUC ([3]; up to 0.3 hr): 4,230 min·µg/mL
AUC ([3]; up to 0.7 hr): 11,650 min·µg/mL
AUC ([3]; up to 1.5 hr): 25,610 min·µg/mL
AUC ([3]; up to 2 hr): 31,700 min·µg/mL
AUC ([3]; up to 3 hr): 42,400 min·µg/mL
AUC ([3]; up to 4 hr): 52,000 min·µg/mL
AUC ([3]; up to 6 hr): 70,640 min·µg/mL
AUC ([3]; up to 10 hr): 106,200 min·µg/mL
AUC ([3]; up to 14 hr): 122,500 min·µg/mL

MDC [4]: 16 µg/mL
[Drug] ([4]; time 0 hr): 0 µg/mL
[Drug] ([4]; time 2 hr): 13 µg/mL
[Drug] ([4]; time 4 hr): 16 µg/mL
[Drug] ([4]; time 8 hr): 13 µg/mL
[Drug] ([4]; time 12 hr): 15 µg/mL
[Drug] ([4]; time 20 hr): 12 µg/mL
[Drug] ([4]; time 24 hr): 11 µg/mL
Compound: [R-(R*,S*)]-5-chloro-N-[2-hydroxy-3-[methoxymethylamino)-3-1-(phenylmethyl)propyl]propyl]-1H-indole-2-carboxamide [Drug 1]
